In US5969099A, “Growth factor analogs” (The Secretary of State for Defence, priority 1995, dated 1999):
Numbered stars: 1 amine (or outer) side, 2 acyl side, 3 side chain; on linkers, the order of the positions; unused ones are H or OH. Bridge positions count the residues as written; N and C are the ends. Square brackets hold non-standard residues; d marks the D form. Ends that are not written are not given here. Peptide text beside a SMILES is read from it. DABHC = 2-azabicyclo[2,2,1]heptane-3-carboxylic acid, D-form (1R,3R,4S), O=C([C@H]1[C@H]2CC[C@H](C2)N1[*:1])[*:2]; X2 = O=C([C@@H]1[C@@H]2CC[C@@H](C2)N1[*:1])[*:2]; X1 = O=C([C@H]1[C@H]2CC[C@H](C2)N1[*:1])[*:2]; LABHC = not defined here

Legend:
NR6/HER cells [1] = format: cell-based, mouse
Procedure: NR6 and NR6/HER cells (NR6 mouse fibroblasts transfected with human EGF-R expression plasmid) and HN5 squamous carcinoma cells (see Cowley, G. P. et al, Br. J. Cancer 1986, 53, 2230229) were routinely cultured in Dulbecco's Modified Eagles Medium (DMEM) containing 10% foetal bovine serum (FBS), 2 mM glutamine, non-essential amino acids, 10 U/ml penicillin and 10 μg/ml streptomycin at 37° C. in a humidified atmosphere of air containing 5% CO2. G418 (100 μg/ml) was also included in the NR6/HER growth medium as selection for EGF Receptor encoding transformants.
(§1) The ability of the Example 1 peptide to induce DNA synthesis in confluent and quiescent cells was assayed as described in Davies, D. E. et al, Br. J. Cancer 1994, 70, 263-269 but using NR6/HER or NR6 cells in place of human foreskin fibroplasts.

NR6/HER cells [2] = assay: Effect of peptide on the mitogenic response induced by TGFA; format: cell-based, mouse
Procedure: as §1

EGF Receptor = biological target: T1, EGF Receptor (Homo sapiens, UniProt P00533); assay: EGF Receptor Tyr phosphorylation assay in HN5 cells (Western blotting); format: cell-based; details: 10 minutes at room temperature
T1 construct: endogenous in cells; host or cells: HN5 squamous carcinoma cells
T1 sequence (P00533 25-1210): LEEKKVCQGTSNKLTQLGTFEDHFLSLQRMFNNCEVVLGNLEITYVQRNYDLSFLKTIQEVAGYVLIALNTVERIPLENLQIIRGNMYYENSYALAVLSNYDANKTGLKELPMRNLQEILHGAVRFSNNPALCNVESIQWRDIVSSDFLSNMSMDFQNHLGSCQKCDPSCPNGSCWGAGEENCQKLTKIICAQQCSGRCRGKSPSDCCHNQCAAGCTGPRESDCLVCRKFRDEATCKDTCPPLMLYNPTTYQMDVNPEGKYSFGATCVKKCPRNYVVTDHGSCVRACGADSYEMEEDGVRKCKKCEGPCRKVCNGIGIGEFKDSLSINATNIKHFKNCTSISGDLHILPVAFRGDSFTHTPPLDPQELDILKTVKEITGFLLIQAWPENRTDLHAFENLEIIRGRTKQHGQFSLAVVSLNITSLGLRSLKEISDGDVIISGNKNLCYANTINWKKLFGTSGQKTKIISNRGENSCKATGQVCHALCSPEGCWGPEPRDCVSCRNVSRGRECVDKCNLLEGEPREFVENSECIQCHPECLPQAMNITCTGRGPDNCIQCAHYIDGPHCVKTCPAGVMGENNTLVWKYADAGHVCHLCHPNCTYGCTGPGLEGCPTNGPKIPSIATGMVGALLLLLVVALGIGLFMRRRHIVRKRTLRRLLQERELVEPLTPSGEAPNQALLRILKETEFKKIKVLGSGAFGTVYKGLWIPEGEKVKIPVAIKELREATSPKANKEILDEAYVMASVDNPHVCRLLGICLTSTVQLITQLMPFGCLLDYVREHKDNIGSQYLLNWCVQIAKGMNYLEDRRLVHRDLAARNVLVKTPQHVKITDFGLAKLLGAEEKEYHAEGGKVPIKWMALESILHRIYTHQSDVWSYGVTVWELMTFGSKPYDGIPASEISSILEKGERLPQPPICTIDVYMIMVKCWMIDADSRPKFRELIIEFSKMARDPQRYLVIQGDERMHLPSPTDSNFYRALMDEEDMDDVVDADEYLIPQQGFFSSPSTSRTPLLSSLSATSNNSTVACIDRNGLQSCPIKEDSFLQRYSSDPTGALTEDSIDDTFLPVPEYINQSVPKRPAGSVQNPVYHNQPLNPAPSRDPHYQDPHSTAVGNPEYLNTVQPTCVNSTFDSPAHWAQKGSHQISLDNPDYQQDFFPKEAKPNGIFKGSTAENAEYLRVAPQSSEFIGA
Procedure: EGF Receptor Tyr phosphorylation assays were performed using HN5 cells at approximately 50% confluence in 96-well plates. Cells were plated in 10% FBS/DMEM and allowed to adhere overnight. Medium was removed and wells washed twice with DMEM. The peptide was diluted in DMEM and added in 50 μl volume and cells incubated for 10 minutes at room temperature. At the end of incubation, reagents were removed and the cells washed once with 50 μl/well buffered saline and then rapidly solubilised with 50 μl/well×1 sample buffer containing phosphatase and protease inhibitors (1 mM NaF, 1 mM Na3 VO4, 100 μM PMSF). Enhanced phosphorylation of the 170 kDa EGF-R was determined by Western Blotting after SDS polyacrylamide gel electrophoresis as in Holt, S. J. et al, Biochem. Pharmacol. 1994, 47, 117-126.

NR6 cells = assay: Mitogenic activity on parental NR6 cell line which lacks EGF-R; format: cell-based, mouse; details: doses maximally stimulating for NR6/HER cells; FIG. 3
[3] = biological target: human EGF Receptor on NR6/HER cells (NR6 mouse fibroblasts transfected with human EGF-R expression plasmid) (human, UniProt P00533); assay: cell-based or functional assay

| Molecule | EC50 (NR6/HER cells [1]) | DNA synthesis (mitogenic activity), EC50 [3] | further results |
| --- | --- | --- | --- |
| CC(C)C[C@@H]1NC(=O)[C@H](Cc2ccccc2)NC(=O)[C@H](CCCNC(=N)N)NC(=O)[C@@H](NC(=O)[C@@H](N)Cc2ccccc2)CSSC[C@@H](C(=O)O)NC(=O)[C@H](C)NC(=O)[C@H]2[C@H]3CC[C@H](C3)N2C(=O)[C@H](CCCCN)NC(=O)[C@H](CC(=O)O)NC(=O)[C@H](CCC(=O)O)NC(=O)[C@H](CCC(N)=O)NC(=O)[C@H](C(C)C)NC1=O [Example 1 peptide] (H-FCRFLVQEDK[X1]AC-OH; disulfide 2-13) | 130 µM | – | – |
| PDGF | – | – | mitogenic response of NR6 cells (EGF-R negative) (NR6 cells): responsiveness of the cells to a mitogenic stimulus was confirmed |
| FCRFLVQEDK[DABHC]AC (disulfide 2-13) | – | 130 µM | – |

More lines, main results first:

| EC50 (NR6/HER cells [1]) | DNA synthesis (mitogenic activity), EC50 [3] | Molecule | further results |
| --- | --- | --- | --- |
| 330 µM | – | CC(C)C[C@@H]1NC(=O)[C@H](Cc2ccccc2)NC(=O)[C@H](CCCNC(=N)N)NC(=O)[C@@H](NC(=O)[C@@H](N)Cc2ccccc2)CSSC[C@@H](C(=O)O)NC(=O)[C@H](C)NC(=O)[C@@H]2[C@@H]3CC[C@@H](C3)N2C(=O)[C@H](CCCCN)NC(=O)[C@H](CC(=O)O)NC(=O)[C@H](CCC(=O)O)NC(=O)[C@H](CCC(N)=O)NC(=O)[C@H](C(C)C)NC1=O [peptide incorporating LABHC] (H-FCRFLVQEDK[X2]AC-OH; disulfide 2-13; N-terminus assumed) | effect on mitogenic response at maximal doses of TGFA (NR6/HER cells [2]; maximal doses of TGFA, FIG. 2(b)): Similar, but less pronounced; effect on mitogenic response at suboptimal doses of TGFA (NR6/HER cells [2]; suboptimal doses of TGFA, FIG. 2(a)): Similar, but less pronounced; EGF Receptor phosphorylation (EGF Receptor): Neither the Example 1 peptide nor the corresponding peptide incorporating LABHC appeared to lead to increased EGF Receptor phosphorylation |
| – | 330 µM | FCRFLVQEDK[LABHC]AC (disulfide 2-13; reading uncertain) | – |
